The results in this text go back to patent US20230107216A1, “PANTETHEINE DERIVATIVES AND USES THEREOF” (Comet Therapeutics, Inc., priority 2018, published 2023).

The subject of experiment [1] is primary fibroblasts (healthy controls and PA, MMA, BCKDK, PDH, VLCAD, LS, PC, GA, VLCFA, KSS, FXN, HD). In words: Measurement of ROS (H2DCFDA) in primary fibroblasts. Format: cell-based, human. The following applies: Homo sapiens, procedure Example 812. The gist of the method:
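Patient and healthy-control primary fibroblasts switched to supplemented DMEM 24 h before assay, then treated with compound (10 μM) plus H2DCFDA (22 μM) for 2 h (PA, MMA lines) or 24 h (other lines). Kinetic fluorescence at 492/527 nm over 60 min; only live cells analysed.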

Experiment [2] has as its system HepG2 cells. In words: Mitochondrial membrane potential (MITO-ID MP detection Kit). Format: cell-based. The following applies: Homo sapiens, 168 h, 7 days; for inhibition at 50 µM: read-out: % decrease in Mitochondrial Membrane Potential. The gist of the method:
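Cells plated at 160000 cells/mL in DMEM with 10% FBS and 1% Pen-Strep, adhered overnight at 37° C., 5% CO2. Exposure to test compounds (50-10 μM) or 0.2% DMSO for 7 days without media change; membrane potential measured with MITO-ID MP detection kit per manufacturer.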

Experiment [3] concerns Very long-chain acyl-CoA dehydrogenase (VLCAD) primary fibroblasts GM17475. In words: Total NAD+ + NADH and NAD+ (NAD/NADH-Glo), VLCAD fibroblasts GM17475. The following applies: Homo sapiens, Fibroblast, VLCAD GM17475 P10, assay condition A, 24h, read-out: Increase in Total NAD+ + NADH. Type of experiment: cell-based. As for the experimental part: Primary adherent fibroblasts were cultured in minimum essential medium (MEM) (Gibco, 25030081) supplemented with 2 mM L-Glutamine (Gibco, 25030081), 15% fetal bovine serum (FBS) (Gibco, 26400044) and 1% penicillin/streptomycin (Gibco, 5140122) at 37° C. and 5% CO2. Cells were collected for either passaging or experiment at ˜70-80% confluence. Cells were obtained by trypsinization and seeded in cell culture microplates either white plate (Thermo Fisher Scientific, 152028) for luminescent measurement or black plate (Thermo Fisher Scientific, 165305) for fluorescent based read out for different assays listed below. Cells were obtained by trypsinization and […] were seeded and allowed to adhere for 16-18 hours to have confluency around 70-80% in the cell well with culture media. After 24 hours prior to measurements (37° C., 5% CO2) media was changed to Dulbecco's Modified Eagle Medium (DMEM, Agilent Seahorse cat #103575-100) with the appropriate supplements as stated below.
Primary fibroblasts assayed were Propionic Acidemia (PA) (GM03590 Coriell Institute for Medical Research, Tsi 6337 Trans-Hit Bio), Methylmalonic Acidemia (MMA) (Tsi 5224 Trans-Hit Bio), Subnormal activation of pyruvate dehydrogenase complex (PDH) (GM01503 Coriell Institute for Medical Research), Very long-chain acyl-CoA dehydrogenase (VLCAD) (GM17475), Leigh Syndrome (LS) (GM03672, GM13411 Coriell Institute for Medical Research), Pyruvate Carboxylase Deficiency (PC) (GM00444 Coriell Institute for Medical Research). 10 μM of Compounds were added for 2 hours in PA, MMA lines and for 24h for the other fibroblast lines.
Assay was performed according to manufacturer instructions (NAD/NADH-Glo Assay Promega, G9072). The NAD/NADH-Glo Assay is a bioluminescent assay for detecting total oxidized and reduced nicotinamide adenine dinucleotides (NAD+ and NADH, respectively) from which ratio of NAD/NADH can be calculated. Briefly, for every assay a 12-point standard curve was prepared ranging from 400 nM to 0.625 nM. Media was removed and replaced with 50 μl of PBS for both assays.
For individual NAD+ and NADH measurement, 50 μl of 1% DTAB (Sigma Cat #D5047) (cell lysis reagent) in 0.2N NaOH was added to the plate and a total 100 μl of lysate was split into two plates with 50 μl each. 25 μl of 0.4N HCl were added to the NAD+ plate and both NAD+ and NADH plate were heated at 60° C. for 15 minutes. The acid and heat treatment destroyed NADH allowing individual NAD+ measurement while heating in basic conditions destroys NAD+ allowed individual NADH measurements. The plates were allowed to come to room temperature for 10 minutes and Trizma base (Sigma, T1699) was added to the NAD+ plate to neutralize the acid and HCl Trizma hydrochloride (Sigma, T2694) was added to the NADH plate. The NADNADH glo reagent was prepared by adding: 625 μl of NAD cycling substrate, 125 μl of reductase, 125 μl of reductase substrate, 125 μl NAD cycling enzyme to total of the 25 ml of NAD GLO reagent. 1:1 ratio of total volume of reagent was added to the individual NAD+, NADH measurement (total 100 μl) and 50 μl for total NAD/NAH measurement. Luminescence was read between 30-60 minutes within the linear range.
A total dead cell count was performed as described in Example 817 and only alive cells were used for analysis.

Experiment [4] concerns HepG2 cells. Description: Glucose uptake (Glucose Uptake-Glo). The following applies: Homo sapiens, 10 uM, read-out: % increase in Glucose Uptake. Format: cell-based.

Each structure is given as a SMILES string. Like-named read-outs stand apart in the source and are kept apart here.

In the case of `C[C@@H](O)CC(=O)SCCNC(=O)CCNC(=O)[C@H](O)C(C)(C)CO` [Compound 38, S-2-{3-[(R)-2,4-dihydroxy-3,3-dimethylbutyrylamino]propionylamino} ethyl (R)-3-hydroxybutanethioate], the inhibition at 10 µM is no less than 10% in experiment [1] (Fibroblast, PDH GM01503, Assay Condition C, read-out: Decreased ROS by at least 10%); no less than 30% in experiment [1] (Fibroblast, PDH GM01503, Assay Condition C, read-out: Decreased ROS by at least 30%); no less than 10% in experiment [1] (FXN GM04078, Assay Condition C, read-out: Decreased ROS by at least 10%); no less than 30% in experiment [1] (FXN GM04078, Assay Condition C, read-out: Decreased ROS by at least 30%). The inhibition at 50 µM in the experiment on HepG2 cells [2] is greater than 30%. For the same compound, the activation at 10 µM in experiment [3] is no less than 10%.
On to `CC(O)C(C(=O)SCCNC(=O)CCNC(=O)[C@H](O)C(C)(C)CO)C(C)O` (stereo partly drawn) [Compound 1285, (2R)-2,4-dihydroxy-N-[2-[(2-[[3-hydroxy-2-(1-hydroxyethyl)butanoyl]sulfanyl]ethyl)carbamoyl]ethyl]-3,3-dimethylbutanamide], for which the inhibition at 10 µM was no less than 10% in experiment [1] (Fibroblast, BCKD GM00612, Assay Condition A, read-out: Decreased ROS by at least 10%) and no less than 30% in experiment [1] (Fibroblast, NPC1 GM22879, Assay Condition C, read-out: Decreased ROS by at least 30%). In the experiment on HepG2 cells [2], the inhibition at 50 µM was greater than 30%. The activation at 10 µM in the experiment on HepG2 cells [4] is no less than 30%; in experiment [3] it was no less than 10%.
Regarding `CC(O)CC(O)CC(O)CC(=O)SCCNC(=O)CCNC(=O)[C@H](O)C(C)(C)CO` (stereo partly drawn) [Compound 401], the inhibition at 10 µM in experiment [1] (Fibroblast, VLCAD GM17475, Assay Condition C, read-out: Decreased ROS by at least 10%) is no less than 10%; in experiment [1] (Fibroblast, VLCAD GM17475, Assay Condition C, read-out: Decreased ROS by at least 30%) it was no less than 30%. Besides, the activation at 10 µM in the experiment on HepG2 cells [2] (10 uM, read-out: % increase in Mitochondrial Membrane Potential) was greater than 10%; in experiment [3], no less than 10%.
